Patent publication US9115092B2, “Substituted quinazoline and pyrido-pyrimidine derivatives” (Asana Biosciences, LLC, priority 2010, dated 2015)

Key:
[1] = target: T1, PI3Kα (wild-type), P110/P85α (Homo sapiens, UniProt P42336); experiment: PI3 Kinase TR-FRET assay, PI3Kα (wild-type); format: biochemical
T1 construct: made in house; host or cells: SF9 insect cells
How it was run: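 Sf9-expressed His-purified P110/P85α (5 ng) preincubated 60 min RT with compound and PIP2 in buffer with 40 mM MgCl2, 5 mM DTT; reaction started with ATP (PIP2 and ATP both 10 μM), 30 min RT. PIP3 detected by TR-FRET displacement, 665/615 nm ratio; IC50 from dose-response curves.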

PC3 cells = experiment: XTT assay for cell viability, PC3 cells; format: cell-based, human; details: Homo sapiens, PC-3, cell viability
Method: Using a commercial kit from Sigma Aldrich (Catalog #X34251) and following its protocol, PC3 cells in the log phase of growth were employed and seeded at an optimal density of 1000 cell/well on to 96 well plates and incubated for 24 h followed by the addition of compounds of formula (I) in serial dilutions. Compound dilutions were made in DMSO. The cells were incubated with the compounds of formula (I) for 96 h and XTT tetrazolium dye (Sigma, USA) was subsequently added and incubated at 37° C. After the color formation, absorbance was measured at 465 nm in a Spectramax® Gemini spectrophotometer. EC50 values were calculated using a sigmoidal dose response curve fit in GraphPad Prism® v5 software. The tested compounds of formula (I) which caused inhibition of PC3 cell proliferation as determined by this assay protocol are shown in Table 2.

mTOR kinase = target: T2, mTOR kinase (Homo sapiens, UniProt P42345); experiment: mTOR kinase TR-FRET assay; format: biochemical; details: read-out: mTO R
T2 construct: purchased Millipore, USA
How it was run: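 Compounds preincubated 60 min with mTOR (5 ng) in HEPES pH 7.5, EGTA, MnCl2; ULight-p70 S6K Thr389 peptide (50 nM) and ATP (20 μM) then added, 60 min at room temperature. EDTA-stopped, Eu-anti-phospho antibody detection by TR-FRET (665/615 nm); IC50 from variable-slope sigmoidal fit.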

T1 sequence (P42336 whole entry): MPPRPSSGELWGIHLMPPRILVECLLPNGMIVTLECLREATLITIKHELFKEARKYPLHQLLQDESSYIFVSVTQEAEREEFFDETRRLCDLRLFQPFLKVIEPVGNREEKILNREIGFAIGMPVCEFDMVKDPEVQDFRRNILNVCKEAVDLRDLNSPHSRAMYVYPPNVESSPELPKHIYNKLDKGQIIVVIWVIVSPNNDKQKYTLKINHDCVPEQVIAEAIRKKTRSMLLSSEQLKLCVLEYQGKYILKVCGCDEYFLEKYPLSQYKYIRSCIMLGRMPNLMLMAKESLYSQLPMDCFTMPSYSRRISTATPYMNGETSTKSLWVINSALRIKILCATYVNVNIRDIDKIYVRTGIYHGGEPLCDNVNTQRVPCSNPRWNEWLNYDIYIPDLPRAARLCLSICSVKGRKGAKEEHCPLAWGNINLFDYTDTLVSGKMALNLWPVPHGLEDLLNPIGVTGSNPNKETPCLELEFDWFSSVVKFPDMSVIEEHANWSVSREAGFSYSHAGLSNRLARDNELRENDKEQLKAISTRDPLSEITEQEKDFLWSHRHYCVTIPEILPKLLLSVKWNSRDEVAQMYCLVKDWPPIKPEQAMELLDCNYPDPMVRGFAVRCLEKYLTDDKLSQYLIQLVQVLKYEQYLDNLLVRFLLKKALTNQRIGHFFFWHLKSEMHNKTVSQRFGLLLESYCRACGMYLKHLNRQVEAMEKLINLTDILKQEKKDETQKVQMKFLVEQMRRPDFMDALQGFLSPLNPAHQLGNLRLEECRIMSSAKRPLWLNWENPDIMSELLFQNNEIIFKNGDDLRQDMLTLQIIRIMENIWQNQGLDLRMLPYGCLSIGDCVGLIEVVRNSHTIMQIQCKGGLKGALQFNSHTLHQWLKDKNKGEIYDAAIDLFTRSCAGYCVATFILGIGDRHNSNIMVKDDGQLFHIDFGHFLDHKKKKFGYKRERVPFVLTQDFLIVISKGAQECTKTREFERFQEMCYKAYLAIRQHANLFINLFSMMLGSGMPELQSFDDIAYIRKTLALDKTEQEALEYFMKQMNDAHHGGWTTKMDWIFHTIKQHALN
T1 sequence (P27986 whole entry partner): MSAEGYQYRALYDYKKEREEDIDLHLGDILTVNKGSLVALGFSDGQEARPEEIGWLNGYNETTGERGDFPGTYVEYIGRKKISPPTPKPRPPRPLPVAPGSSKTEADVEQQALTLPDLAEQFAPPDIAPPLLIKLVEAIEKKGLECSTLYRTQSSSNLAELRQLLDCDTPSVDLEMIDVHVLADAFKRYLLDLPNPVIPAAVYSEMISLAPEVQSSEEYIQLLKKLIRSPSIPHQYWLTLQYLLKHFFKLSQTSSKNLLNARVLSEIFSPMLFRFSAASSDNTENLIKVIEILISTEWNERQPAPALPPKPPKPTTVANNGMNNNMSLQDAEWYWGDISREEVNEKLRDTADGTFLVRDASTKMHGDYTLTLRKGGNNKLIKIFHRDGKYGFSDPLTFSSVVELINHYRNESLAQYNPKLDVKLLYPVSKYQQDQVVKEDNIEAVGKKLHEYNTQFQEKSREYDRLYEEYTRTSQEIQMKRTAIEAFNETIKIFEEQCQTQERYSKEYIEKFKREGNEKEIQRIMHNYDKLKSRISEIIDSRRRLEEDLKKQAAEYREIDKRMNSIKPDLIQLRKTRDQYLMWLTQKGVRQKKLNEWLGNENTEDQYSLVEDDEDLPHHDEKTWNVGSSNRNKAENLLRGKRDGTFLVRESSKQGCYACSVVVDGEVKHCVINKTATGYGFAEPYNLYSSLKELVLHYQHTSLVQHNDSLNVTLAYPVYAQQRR

IC50 [1] [nM] | IC50 (PC3 cells) [nM] | IC50 (mTOR kinase) [nM] | SMILES
50 to 200 | < 100 | 201 to 10000 | CN(C)C(=O)c1ccc(NC(=O)Nc2ccc(-c3nc(N4CCOCC4)c4ccc(-c5ccco5)cc4n3)c(F)c2F)cc1 [Example 282, -(3-(2,3-difluoro-4-(7-(furan-2-yl)-4-morpholino-quinazolin-2-yl)phenyl)ureido)-N,N-dimethyl-benzamide]
50 to 200 | 201 to 10000 | < 50 | Cc1noc(C)c1-c1cc2nc(-c3ccc(NC(=O)Nc4ccc(C(=O)N(C)C)cc4)cc3)nc(N3CCOCC3)c2cc1F [Example 143, 4-(3-(4-(7-(3,5-dimethylisoxazol-4-yl)-6-fluoro-4-morpholino-quinazolin-2-yl)phenyl)ureido)-N,N-dimethyl-benzamide]
< 50 | 201 to 10000 | < 50 | CN(C)C(=O)c1ccc(NC(=O)Nc2ccc(-c3nc(N4CCOCC4)c4ccc(-c5cnc(N(C)C)nc5)cc4n3)cc2)cc1 [Example 226, 4-(3-(4-(7-(2-(dimethylamino)pyrimidin-5-yl)-4-morpholino-quinazolin-2-yl)phenyl)ureido)-N,N-dimethyl-benzamide]
< 50 | 201 to 10000 | < 50 | Cc1noc(C)c1-c1cnc2c(N3CCOCC3)nc(-c3ccc(NC(=O)Nc4ccc(C(=O)N(C)C)cc4)c(F)c3)nc2c1 [Example 135, 4-(3-(4-(7-(3,5-dimethylisoxazol-4-yl)-4-morpholino-pyrido[3,2-d]pyrimidin-2-yl)-2-fluorophenyl)ureido)-N,N-dimethyl-benzamide]
< 50 | < 100 | < 50 | CN(C)C(=O)c1ccc(NC(=O)Nc2ccc(-c3nc(N4CCOCC4)c4ncc(-c5cncnc5)cc4n3)cc2)cc1 [Example 9, N,N-Dimethyl-4-{3-[4-(4-morpholin-4-yl-7-pyrimidin-5-yl-pyrido[3,2-d]-pyrimidin-2-yl)-phenyl]-ureido}-benzamide]
< 50 | < 100 | < 50 | CN1CCN(C(=O)c2ccc(NC(=O)Nc3ccc(-c4nc(N5CCOCC5)c5ccc(-c6cccnc6F)cc5n4)cc3)cc2)CC1 [Example 26, 1-{4-[7-(2-fluoro-pyridin-3-yl)-4-morpholin-4-yl-quinazolin-2-yl]-phenyl}-3-[4-(4-methyl-piperazine-1-carbonyl)-phenyl]-urea]
< 50 | < 100 | < 50 | CN(C)C(=O)c1ccc(NC(=O)Nc2ccc(-c3nc(N4CCOCC4)c4ccc(-c5cccc(CO)c5)cc4n3)cc2)cc1 [Example 45, 4-(3-{4-[7-(3-hydroxymethyl-phenyl)-4-morpholin-4-yl-quinazolin-2-yl]-phenyl}-ureido)-N,N-dimethyl-benzamide]
< 50 | 100 to 500 | < 50 | Cc1ccc(-c2cnc3c(N4CCOCC4)nc(-c4ccc(NC(=O)Nc5ccc(C(=O)N(C)C)cc5)cc4)nc3c2)o1 [Example 43, N,N-dimethyl-4-(3-{4-[7-(5-methyl-furan-2-yl)-4-morpholin-4-yl-pyrido[3,2-d]pyrimidin-2-yl]-phenyl}-ureido)-benzamide]
50 to 200 | < 100 | 50 to 200 | CN(C)C(=O)c1ccc(NC(=O)Nc2ccc(-c3nc(N4CCOCC4)c4ccc(-c5ccco5)cc4n3)cc2)cc1F [Example 265, 2-fluoro-4-(3-(4-(7-(furan-2-yl)-4-morpholino-quinazolin-2-yl)phenyl)ureido)-N,N-dimethyl-benzamide]
< 50 | 501 to 5000 | 50 to 200 | CN(C)C(=O)c1ccc(NC(=O)Nc2ccc(-c3nc(N4CCOCC4)c4ccc(-c5cccc(NS(C)(=O)=O)c5)cc4n3)cc2)cc1 [Example 23, 4-(3-{4-[7-(3-methanesulfonylamino-phenyl)-4-morpholin-4-yl-quinazolin-2-yl]-phenyl}-ureido)-N,N-dimethyl-benzamide]
50 to 200 | < 100 | < 50 | CN(C)C(=O)c1ccc(NC(=O)Nc2ccc(-c3nc(N4CCOCC4)c4ccc(-c5cccnc5F)cc4n3)cc2)cn1 [Example 28, 5-(3-{4-[7-(2-fluoro-pyridin-3-yl)-4-morpholin-4-yl-quinazolin-2-yl]-phenyl}-ureido)-pyridine-2-carboxylic acid dimethylamide]
< 50 | < 100 | < 50 | CN(C)C(=O)c1ccc(NC(=O)Nc2ccc(-c3nc(N4CCOCC4)c4ccc(-c5cnc6ccccc6c5)cc4n3)cc2)cc1 [Example 59, N,N-dimethyl-4-{3-[4-(4-morpholin-4-yl-7-quinolin-3-yl-quinazolin-2-yl)-phenyl]-ureido}-benzamide]
< 50 | 201 to 10000 | 50 to 200 | CN(C)C(=O)c1ccc(NC(=O)Nc2ccc(-c3nc(N4CCOCC4)c4ccc(-c5ccc(CO)o5)cc4n3)c(F)c2)cc1 [Example 274, 4-(3-(3-fluoro-4-(7-(5-(hydroxymethyl)furan-2-yl)-4-morpholino-quinazolin-2-yl)phenyl)ureido)-N,N-dimethyl-benzamide]
< 50 | 501 to 5000 | < 50 | CN1CCN(C(=O)c2ccc(NC(=O)Nc3ccc(-c4nc(N5CCOCC5)c5ccc(-c6cccc(S(C)(=O)=O)c6)cc5n4)cc3)cc2)CC1 [Example 32, 1-(4-(4-methylpiperazine-1-carbonyl)phenyl)-3-(4-(7-(3-(methylsulfonyl)phenyl)-4-morpholino-quinazolin-2-yl)phenyl)urea]
< 50 | < 100 | < 50 | CN(C)C(=O)c1ccc(NC(=O)Nc2ccc(-c3nc(N4CCOCC4)c4ccc(-c5cncc(S(C)(=O)=O)c5)cc4n3)cc2)cc1 [Example 34, 4-(3-{4-[7-(5-methanesulfonyl-pyridin-3-yl)-4-morpholin-4-yl-qinazolin-2-yl]-phenyl}-ureido)-N,N-dimethyl-benzamide]
50 to 200 | < 100 | < 50 | Cc1ccc(-c2ccc3c(N4CCOCC4)nc(-c4ccc(NC(=O)Nc5ccc(C(=O)N6CCC(N(C)C)C6)cc5)cc4)nc3c2)o1 (stereo in doubt) [Example 195, (S)-1-(4-(3-(dimethylamino)pyrrolidine-1-carbonyl)phenyl)-3-(4-(7-(5-methylfuran-2-yl)-4-morpholino-quinazolin-2-yl)phenyl)urea]
< 50 | 501 to 5000 | < 50 | CN1CCN(C(=O)c2ccc(NC(=O)Nc3ccc(-c4nc(N5CCOCC5)c5ncc(-c6cnn(C)c6)cc5n4)cc3)cc2)CC1 [Example 73, 1-[4-(4-methyl-piperazine-1-carbonyl)-phenyl]-3-{4-[7-(1-methyl-1H-pyrazol-4-yl)-4-morpholin-4-yl-pyrido[3,2-d]pyrimidin-2-yl]-phenyl}-urea]
< 50 | < 100 | < 50 | CN(C)C(=O)c1ccc(NC(=O)Nc2ccc(-c3nc(N4CCOCC4)c4cc(F)c(-c5cncc(S(C)(=O)=O)c5)cc4n3)cc2)cc1 [Example 38, 4-(3-{4-[6-fluoro-7-(5-methanesulfonyl-pyridin-3-yl)-4-morpholin-4-yl-quinazolin-2-yl]-phenyl}-ureido)-N,N-dimethyl-benzamide]
< 50 | 501 to 5000 | < 50 | CN(C)C(=O)c1ccc(NC(=O)Nc2ccc(-c3nc(N4CCOCC4)c4ccc(-c5ccnc(F)c5)cc4n3)cc2)cc1 [Example 68, 4-(3-{4-[7-(2-fluoro-pyridin-4-yl)-4-morpholin-4-yl-quinazolin-2-yl]-phenyl}-ureido)-N,N-dimethyl-benzamide]
50 to 200 | 501 to 5000 | 50 to 200 | Cc1ccc(-c2ccc3c(N4CCOCC4)nc(-c4ccc(NC(=O)Nc5ccc(C(=O)N6CCN(C)CC6)cc5)cc4)nc3c2)o1 [Example 70, 1-{4-[7-(5-methyl-furan-2-yl)-4-morpholin-4-yl-quinazolin-2-yl]-phenyl}-3-[4-(4-methyl-piperazine-1-carbonyl)-phenyl]-urea]
< 50 | 501 to 5000 | < 50 | CN(C)C(=O)c1ccc(NC(=O)Nc2ccc(-c3nc(N4CCOCC4)c4ccc(-c5ccncc5)cc4n3)cc2)cc1 [Example 58, N,N-dimethyl-4-{3-[4-(4-morpholin-4-yl-7-pyridin-4-yl-quinazolin-2-yl)-phenyl]-ureido}-benzamide]
< 50 | 201 to 10000 | < 50 | NC1CCN(C(=O)c2ccc(NC(=O)Nc3ccc(-c4nc(N5CCOCC5)c5ccc(-c6ccco6)cc5n4)cc3)cc2)C1 (stereo in doubt) [Example 234, (S)-1-(4-(3-aminopyrrolidine-1-carbonyl)phenyl)-3-(4-(7-(furan-2-yl)-4-morpholino-quinazolin-2-yl)phenyl)urea]
< 50 | 100 to 500 | < 50 | COc1ccc(-c2ccc3c(N4CCOCC4)nc(-c4ccc(NC(=O)Nc5ccc(C(=O)N(C)C)cc5)cc4)nc3c2)cn1 [Example 60, 4-(3-{4-[7-(6-methoxy-pyridin-3-yl)-4-morpholin-4-yl-quinazolin-2-yl]-phenyl}-ureido)-N,N-dimethyl-benzamide]
